IC50 and GI50 data for six compounds are collected here from patent US10870647B2, “Imidazopyridine derivative, method for preparing same, and pharmaceutical composition containing same as active ingredient for preventing or treating cancer” (DAEGU-GYEONGBUK MEDICAL INNOVATION FOUNDATION, priority 2016, dated 2020).

Common to all, as to format: cell-based
One assay concerns RET (LC2/ad-CDC6). Description: Cancer cell proliferation inhibition, MTS assay, 72 hours. To be noted: 72 h. As to the method:
(§1) MTS assay was performed to evaluate the cancer cell proliferation inhibition (cancer cell apoptosis) effect of the compounds of examples of the present invention. Particularly, the assay was performed using the cancer cell lines GIST-T1, GIST-T1/816, GIST-430, GIST-430/654, GIST-R1, GIST-R3, M-NFS-60, RetParental (Ba/F3), Retwt (Ba/F3), RetV804M (Ba/F3), RET (LC2/ad-CDC6), FYN (MCP-1), FYN (FN), MDA-MB-231, Huh7, K562, T315I(Ba/F3), SK-MEL-28 and A375. Cell culture was performed using a medium suitable for each cell line.
(§2) Other cell lines were seeded in a 96-well plate containing the corresponding medium appropriate for each cell line at the density of 3,000 cells/well, followed by culture in a 5% CO2 and 37° C. incubator for 24 hours. The compounds of examples of the present invention were added to each well at the concentration of from the highest volume of 50 μM to every step of serial dilution. The solvent control, dimethylsulfoxide (DMSO), was treated at the same concentration of 0.05% (v/v) as the volume used for the treatment of the compounds above. Each cell line was cultured for 72 hours. To investigate the cell viability, the MTS and PMS (phenazine methosulfate) mixture provided in CellTiter 96® AQuous Non-Radioactive Cell Proliferation Assay Kit (Promega) was added to each cell culture medium, followed by additional culture at 37° C. for 2 hours. Then, OD450 was measured. Based on OD of the solvent control cells not treated with any compounds of the present invention, the cell proliferation inhibition rate was calculated according to the treatment concentration of each compound. At this time, the concentration of each compound that was able to inhibit cancer cell proliferation up to 50% was determined as IC50 (uM). IC50 of each compound was determined with three data sets and calculated by using Prism softwater (version 6.01, GraphPad).

The next assay deals with Huh7. Described as above. To be noted: Homo sapiens, Huh-7. The protocol: as §1, §2
The target in a further assay is T1, T315I (Ba/F3) (Homo sapiens, UniProt P00519, T315I, cells depend on it).
T1 construct: fused on or other part: P11274 (Breakpoint cluster region protein)
Description: Cancer cell proliferation inhibition, CCK-8, 72 hours. To be noted: read-out: T315I (Ba/F3) IC50. The protocol:
as §1
(§3) In the meantime, MDA-MB-231 and A375 cells were seeded in a 96well plate at the density of 2×10^3/100 μl/well, which stood for a day for attachment. The culture fluid was eliminated. After removing the culture medium, the medium was replaced with the culture medium containing the compounds of the present invention at 3-times serially diluted 9 concentrations (0.0015-10 μM) and the DMSO control, followed by incubation in a 37° C. CO2 incubator for 72 hours. On the other hand, K-562 and Ba/F3-T315I cells were seeded in a 96-well plate at the density of 1×10^4/90 μl/well. The plate containing K-562 cells was added with the culture medium containing the compounds of the present invention at 3-times serially diluted 9 concentrations (0.015-100 μM) and the DMSO control (10 μl/well). The plate containing Ba/F3-T315I cells was added with the culture medium containing the compounds of the present invention at 5-times serially diluted 9 concentrations (0.000256-100 μM) and the DMSO control (10 μl/well). The final concentration was made 0-10 μM and then the cells were cultured in a 37° C. CO2 incubator for 72 hours.
(§4) A375, K-562 and Ba/F3-T315I cells were added with CCK-8 solution at the concentration of 10 μl/well, followed by orbital shaking for 30 seconds. Then, the cells were cultured in a 37° C. CO2 incubator for 2 hours. OD450 was measured by using a microplate reader. The OD value of the well treated with the culture medium and CCK-8 solution alone was subtracted from the OD value measured above, followed by calculation of IC50 using GraphPad Prism 6 software.

A further assay has as its system A375. The assay is described as above. To be noted: Homo sapiens, A-375, 72 h. As to the method:
as §1, §3, §4

The test system of the next assay is K562. The assay is described as above. To be noted: Homo sapiens, K562, 72 h. The protocol:
as §1, §3, §4

The next assay relates to M-NFS-60. Described as above. As to the method: as §1
M-NFS-60 cell line was cultured in the complete growth medium prepared by adding 10% FBS, 0.05 mM 2-mercaptoethanol and 62 ng of human M-CSF to RPMI. When the confluence reached 80% in T-75 flask, the cells were collected in a 50 ml tube for seeding, followed by centrifugation at 800 rpm for 5 minutes. The cells were suspended in 10 mL of growth medium. The cell number was counted by using a hematocytometer to determine the necessary cell number and the medium volume for seeding. The cells were seeded in a 96-well plate at the density of 20000 cells/well (200 μL/well), followed by stabilization in a 37° C. CO2 incubator, while the compounds of the present invention were prepared. The compounds of the present invention were serially diluted with DMSO at the ratio of 1/3 with setting the maximum concentration at 1968 nM, which were loaded in a new V-bottom 96-well plate, resulting in the preparation of total 11 concentrations including the DMSO control. The cells that had been placed in the incubator were taken out, to which the compounds of the present invention were added (2 μl/well). The plate treated with the compounds was cultured in a 37° C. CO2 incubator for 72 hours. 72 hours later, the plate treated with the compounds was taken out, to which CCK-8 solution was treated (20 μl/well). After well mixing, the plate was further cultured in a 37° C. CO2 incubator for 2 hours. Then, OD450 was measured by using a microplate reader. To obtain accurate results, the wells displaying bubbles were eliminated from the measurement.

Another assay has as its system MDA-MB-231. Description: Real time cell proliferation, IncuCyte ZOOM, 72 hours. To be noted: Homo sapiens, MDA-MB-231, 72 h.
The next assay has as its system SK-MEL-28. Briefly: Cancer cell proliferation inhibition, MTS assay, 72 hours. To be noted: Homo sapiens. As to the method:
as §1, §2
In general terms: Tetrazolium assays rely on reduction of a dye to a coloured formazan, in cell work by metabolically active cells.

Where only a bound is given, the exact number is not on record here.

As usually defined, the IC50 is the concentration at which inhibition is half-maximal. Low readings indicate inhibition by little substance, high ones a need for much substance. With `Cc1ccc(C(=O)Nc2ccc(CN3CC[C@@H](N(C)C)C3)c(C(F)(F)F)c2)cc1C#Cc1cnc2c(Nc3cnn(C)c3)cccn12` [Example 50, (R)—N-(4-((3-(dimethylamino)pyrrolidin-1-yl)methyl)-3-(trifluoromethyl)phenyl)-4-methyl-3-((8-((1-methyl-1H-pyrazol-4-yl)amino)imidazo[1,2-a]pyridin-3-yl)ethynyl)benzamide], the IC50 is above 0.01 µM with RET (LC2/ad-CDC6); 0.057 µM in the assay with Huh7; 0.224 µM in the assay on A375; below 0.001 µM with K562; 0.0403 µM with M-NFS-60; 0.325 µM with MDA-MB-231. The GI50 at T315I (Ba/F3) amounted to 0.0282 µM.
Regarding `Cc1ccc(C(=O)Nc2ccc(CN3CC[C@H](N(C)C)C3)c(C(F)(F)F)c2)cc1C#Cc1cnc2c(Nc3cnn(C)c3)cccn12` [Example 51, (S)—N-(4-((3-(dimethylamino)pyrrolidin-1-yl)methyl)-3-(trifluoromethyl)phenyl)-4-methyl-3-((8-((1-methyl-1H-pyrazol-4-yl)amino)imidazo[1,2-a]pyridin-3-yl)ethynyl)benzamide], the IC50 is above 0.01 µM in the assay on RET (LC2/ad-CDC6); 0.0878 µM with Huh7; 0.249 µM in the assay with A375; below 0.001 µM in the assay on K562; 0.0311 µM in the assay with M-NFS-60; 0.319 µM in the assay on MDA-MB-231. Moreover, the GI50 at T315I (Ba/F3) was 0.0288 µM.
On to `Cc1ccc(NC(=O)Nc2cccc(C(F)(F)F)c2)cc1C#Cc1cnc2c(Nc3cnn(C(C)C)c3)cccn12` [Example 83, 1-(3-((8-((1-isopropyl-1H-pyrazol-4-yl)amino)imidazo[1,2-a]pyridin-3-yl)ethynyl)-4-methylphenyl)-3-(3-(trifluoromethyl)phenyl)urea], for which the IC50 with RET (LC2/ad-CDC6) was 1 µM; in the assay with Huh7, 2.18 µM; in the assay on SK-MEL-28 it was 1.44 µM; with A375, 5.16 µM; in the assay with K562 it was 0.02 µM; in the assay with MDA-MB-231, 5.7 µM. For the same compound, the GI50 at T315I (Ba/F3) came out at 0.627 µM.
Turning to `COCCn1cc(Nc2cccn3c(C#Cc4cc(C(=O)Nc5ccc(CN6CCN(C)[C@@H](C)C6)c(C(F)(F)F)c5)ccc4C)cnc23)cn1` [Example 44, (S)—N-(4-((3,4-dimethylpiperazin-1-yl)methyl)-3-(trifluoromethyl)phenyl)-3-((8-((1-(2-methoxyethyl)-1H-pyrazol-4-yl)amino)imidazo[1,2-a]pyridin-3-yl)ethynyl)-4-methylbenzamide], the IC50 with RET (LC2/ad-CDC6) was found to be 0.01 µM; in the assay on Huh7 it was 0.165 µM; with A375, 0.183 µM; with K562, 0.012 µM; with M-NFS-60, 0.0388 µM; in the assay with MDA-MB-231, 0.24 µM. The GI50 at T315I (Ba/F3) was 0.0422 µM.
Turning to `Cc1ccc(C(=O)Nc2ccccc2F)cc1C#Cc1cnc2c(Nc3cnn(C)c3)cccn12` [Example 2, N-(2-fluorophenyl)-4-methyl-3-((8-((1-methyl-1H-pyrazol-4-yl)amino)imidazo[1,2-a]pyridin-3-yl)ethynyl)benzamide], the IC50 was above 50 µM in the assay with Huh7; above 10 µM in the assay with SK-MEL-28; above 10 µM in the assay on A375; 0.012 µM in the assay with K562; above 10 µM in the assay with MDA-MB-231. For the same compound, at T315I (Ba/F3), the GI50 is above 10 µM.
For the compound `Cc1ccc(C(=O)Nc2ccc(CN3CCN(C)[C@@H](C)C3)c(C(F)(F)F)c2)cc1C#Cc1cnc2c(Nc3cnn(C)c3)cccn12` [Example 47, (S)—N-(4-((3,4-dimethylpiperazin-1-yl)methyl)-3-(trifluoromethyl)phenyl)-4-methyl-3-((8-((1-methyl-1H-pyrazol-4-yl)amino)imidazo[1,2-a]pyridin-3-yl)ethynyl)benzamide], the IC50 in the assay with RET (LC2/ad-CDC6) is above 0.01 µM; in the assay on A375 it was 0.152 µM; in the assay with K562 it was below 0.001 µM; in the assay on M-NFS-60 it was 0.0438 µM; with MDA-MB-231, 0.168 µM. In addition, the GI50 at T315I (Ba/F3) amounted to 0.025 µM.
